This note sets out measurements from ChEMBL document CHEMBL2401727, “Searching for new antiarrhythmic agents: evaluation of meta-hydroxymexiletine enantiomers” (Eur J Med Chem, 2013).

Data set [1] relates to Heart. As to the kind of experiment: Antiarrhythmic activity in guinea pig left atria assessed as increase of threshold of 1 Hz alternating current-induced arrhythmia at 1 Hz measured every 30 mins. Type of data set: functional, tissue-based. Conditions: Cavia porcellus, 0.5 h.
The subject of data set [2] is Left cardiac atrium. In words: Negative inotropic activity in guinea pig left atria assessed as decrease of 1 Hz current-induced developed tension. Type of data set: functional. Particulars: Cavia porcellus.
Data set [3] is described as follows: Negative chronotropic activity in guinea pig spontaneously beating right atria assessed as decrease in atrial rate at 10^-5 M relative to control. Also noted: scale not given: the % may be the effect or the level left. In kind it is functional, Cavia porcellus, Cardiac atrium.
The subject of data set [4] is Left cardiac atrium. As to the kind of experiment: Negative inotropic activity in guinea pig left atria assessed as decrease of 1 Hz current-induced developed tension at 10^-6 M relative to control. In kind it is functional, Cavia porcellus. More on the design: scale not given: the % may be the effect or the level left.
In data set [5] the test system is Heart. In words: Antiarrhythmic activity in guinea pig left atria assessed as increase of threshold of 1 Hz alternating current-induced arrhythmia at 10^-6 M measured every 30 mins relative to control. In kind it is functional, Cavia porcellus.
Data set [6] concerns Aorta. In words: Vasorelaxant activity in guinea pig K+-depolarized aortic strip assessed as inhibition of calcium-induced contraction at 5 X 10^-5 M relative to control. In kind it is functional. Conditions: Cavia porcellus.
In data set [7] the test system is Ileum. In words: Relaxtant activity in guinea pig K+-depolarized ileum longitudinal smooth muscle assessed as inhibition of calcium-induced contraction at 10^-4 M relative to control. In kind it is functional. Conditions: Cavia porcellus.
In data set [8] the test system is Ileum. In words: Relaxtant activity in guinea pig K+-depolarized ileum longitudinal smooth muscle assessed as inhibition of calcium-induced contraction. In kind it is functional, tissue-based. Conditions: Cavia porcellus.
For data set [9], the system named is Left cardiac atrium. In words: Negative inotropic activity in guinea pig left atria assessed as decrease of 1 Hz current-induced developed tension at 5 X 10^-5 M relative to control. In kind it is functional, Cavia porcellus. Also noted: scale not given: the % may be the effect or the level left.
Data set [10] relates to Aorta. As to the kind of experiment: Vasorelaxant activity in guinea pig K+-depolarized aortic strip assessed as inhibition of calcium-induced contraction at 10^-4 M relative to control. In kind it is functional. Particulars: Cavia porcellus.
Data set [11] has as its system Heart. As to the kind of experiment: Antiarrhythmic activity in guinea pig left atria assessed as increase of threshold of 1 Hz alternating current-induced arrhythmia at 10^-4 M measured every 30 mins relative to control. Type of data set: functional, Cavia porcellus.
The nature of data set [12]: Elimination half life in human. Particulars: in vivo.

Regarding `Cc1ccc(O)c(C)c1OC[C@@H](C)N`, the EC50 in the data set with Heart [1] came to 0.56 µM; in the data set on Left cardiac atrium [2], 0.025 µM. For the same molecule, the Activity was 34% in [3] and 89% in the data set with Left cardiac atrium [4]. In addition, the “%max” value in the data set with Heart [5] worked out at 66%. Also, the inhibition at 50 µM with Aorta [6] came to 1%. Moreover, the inhibition at 100 µM with Ileum [7] amounted to 47%.
For `Cc1ccc(O)c(C)c1OC[C@H](C)N`, in the data set with Ileum [8], the concentration for half-maximal inhibition (IC50) came to 13.6 µM. In addition, the Activity in the data set with Left cardiac atrium [9] was determined as 93%; in data set [3], 16%. The inhibition at 100 µM in the data set with Aorta [10] amounted to 4%; in the data set on Ileum [7] it was 75%. Moreover, the half-maximal effective concentration (EC50) in the data set with Left cardiac atrium [2] was found to be 0.12 µM. In addition, the “%max” value with Heart [11] was found to be 13%.
With `Cc1ccc(O)c(C)c1OCC(C)N` (racemic), the IC50 with Ileum [8] is 25.8 µM. The inhibition at 100 µM in the data set on Ileum [7] was 51%.
Take `Cc1cccc(C)c1OCC(C)N` (centres undefined) [MEXILETINE]: the IC50 in the data set on Ileum [8] worked out at 8.52 µM. In addition, the half-life in [12] was 10 h. The inhibition at 100 µM with Ileum [7] came to 81%.
